From ChEMBL document CHEMBL5465560, “Selectivity Literature for EUbOPEN Chemogenomic Library” (2024)

Tests used:
[1] = target: Mitogen-activated protein kinase 3 (Homo sapiens, UniProt P27361); experiment: Selectivity interaction (Rxn Biology Kinase assay) EUB0001632a MAPK3; conditions: at 10 µM
[2] = target: Cyclin-dependent kinase 10 (Homo sapiens) (UniProt Q15131); experiment: Selectivity interaction (ActivX KiNativ screen (kinase selectivity in THP-1 cell lysates)) EUB0000639a CDK10; type: subcellular; conditions: lysate
Sequence of Cyclin-dependent kinase 10 (Homo sapiens) (Q15131 whole entry): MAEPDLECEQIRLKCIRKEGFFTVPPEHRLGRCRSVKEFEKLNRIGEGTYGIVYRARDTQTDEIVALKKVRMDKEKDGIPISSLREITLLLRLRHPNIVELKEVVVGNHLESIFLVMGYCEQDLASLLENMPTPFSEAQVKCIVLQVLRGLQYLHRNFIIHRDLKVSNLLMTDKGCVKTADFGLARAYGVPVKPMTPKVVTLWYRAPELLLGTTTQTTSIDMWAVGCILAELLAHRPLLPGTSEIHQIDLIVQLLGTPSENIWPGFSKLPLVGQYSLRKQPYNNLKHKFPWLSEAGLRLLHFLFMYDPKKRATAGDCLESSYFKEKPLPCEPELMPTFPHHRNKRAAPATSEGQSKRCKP

[3] = target: T1, Ephrin type-B receptor 1 (Homo sapiens) (UniProt P54762); experiment: Selectivity interaction (Kinase panel (Invitrogen)) EUB0000639a EPHB1; conditions: at 200 nM
T1 sequence (whole entry): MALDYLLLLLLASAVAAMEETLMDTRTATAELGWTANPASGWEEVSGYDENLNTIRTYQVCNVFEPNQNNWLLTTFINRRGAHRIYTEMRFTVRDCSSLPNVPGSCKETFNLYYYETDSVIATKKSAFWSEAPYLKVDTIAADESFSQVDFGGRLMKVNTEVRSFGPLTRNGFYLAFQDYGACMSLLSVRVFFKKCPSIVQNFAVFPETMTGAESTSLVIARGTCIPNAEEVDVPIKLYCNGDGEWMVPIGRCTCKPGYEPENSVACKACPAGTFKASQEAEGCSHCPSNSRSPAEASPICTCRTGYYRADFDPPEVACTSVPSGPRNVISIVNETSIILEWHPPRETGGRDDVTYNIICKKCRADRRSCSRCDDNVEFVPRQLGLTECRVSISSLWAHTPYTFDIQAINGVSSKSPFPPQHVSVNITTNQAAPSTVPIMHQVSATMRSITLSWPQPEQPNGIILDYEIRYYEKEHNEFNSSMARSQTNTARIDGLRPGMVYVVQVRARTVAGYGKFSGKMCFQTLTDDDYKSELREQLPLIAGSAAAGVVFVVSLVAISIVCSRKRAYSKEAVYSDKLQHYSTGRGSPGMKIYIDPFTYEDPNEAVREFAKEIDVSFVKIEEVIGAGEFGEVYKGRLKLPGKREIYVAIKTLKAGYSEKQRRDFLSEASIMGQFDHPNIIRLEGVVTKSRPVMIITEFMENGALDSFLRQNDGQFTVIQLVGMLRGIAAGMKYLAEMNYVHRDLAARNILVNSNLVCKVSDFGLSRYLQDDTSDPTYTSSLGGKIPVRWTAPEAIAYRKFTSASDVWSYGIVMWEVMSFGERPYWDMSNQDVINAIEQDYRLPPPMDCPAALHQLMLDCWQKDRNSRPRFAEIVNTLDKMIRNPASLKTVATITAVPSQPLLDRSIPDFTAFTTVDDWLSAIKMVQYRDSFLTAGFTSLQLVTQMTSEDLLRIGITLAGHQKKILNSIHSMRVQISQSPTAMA

[4] = target: Casein kinase I isoform alpha (Homo sapiens, UniProt P48729); experiment: Selectivity interaction (SelectScreen profiling (Invitrogen)) EUB0000607a CSNK1A1; conditions: at 2 µM
Sequence of Casein kinase I isoform alpha (P48729 2-337 limits assumed): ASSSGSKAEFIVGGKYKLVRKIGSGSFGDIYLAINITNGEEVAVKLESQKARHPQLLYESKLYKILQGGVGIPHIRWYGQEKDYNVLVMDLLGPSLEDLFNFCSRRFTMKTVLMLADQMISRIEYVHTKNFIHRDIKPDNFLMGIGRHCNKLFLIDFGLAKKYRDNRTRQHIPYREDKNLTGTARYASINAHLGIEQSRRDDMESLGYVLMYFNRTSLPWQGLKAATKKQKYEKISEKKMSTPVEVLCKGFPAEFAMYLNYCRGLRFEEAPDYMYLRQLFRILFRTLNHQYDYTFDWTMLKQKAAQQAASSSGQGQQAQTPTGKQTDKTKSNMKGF

[5] = target: T2, Serine/threonine-protein kinase LATS2 (Homo sapiens) (UniProt Q9NRM7); experiment: Selectivity interaction (KinomeScan (DiscoverX)) EUB0000607a LATS2; conditions: at 10 µM
T2 sequence (whole entry): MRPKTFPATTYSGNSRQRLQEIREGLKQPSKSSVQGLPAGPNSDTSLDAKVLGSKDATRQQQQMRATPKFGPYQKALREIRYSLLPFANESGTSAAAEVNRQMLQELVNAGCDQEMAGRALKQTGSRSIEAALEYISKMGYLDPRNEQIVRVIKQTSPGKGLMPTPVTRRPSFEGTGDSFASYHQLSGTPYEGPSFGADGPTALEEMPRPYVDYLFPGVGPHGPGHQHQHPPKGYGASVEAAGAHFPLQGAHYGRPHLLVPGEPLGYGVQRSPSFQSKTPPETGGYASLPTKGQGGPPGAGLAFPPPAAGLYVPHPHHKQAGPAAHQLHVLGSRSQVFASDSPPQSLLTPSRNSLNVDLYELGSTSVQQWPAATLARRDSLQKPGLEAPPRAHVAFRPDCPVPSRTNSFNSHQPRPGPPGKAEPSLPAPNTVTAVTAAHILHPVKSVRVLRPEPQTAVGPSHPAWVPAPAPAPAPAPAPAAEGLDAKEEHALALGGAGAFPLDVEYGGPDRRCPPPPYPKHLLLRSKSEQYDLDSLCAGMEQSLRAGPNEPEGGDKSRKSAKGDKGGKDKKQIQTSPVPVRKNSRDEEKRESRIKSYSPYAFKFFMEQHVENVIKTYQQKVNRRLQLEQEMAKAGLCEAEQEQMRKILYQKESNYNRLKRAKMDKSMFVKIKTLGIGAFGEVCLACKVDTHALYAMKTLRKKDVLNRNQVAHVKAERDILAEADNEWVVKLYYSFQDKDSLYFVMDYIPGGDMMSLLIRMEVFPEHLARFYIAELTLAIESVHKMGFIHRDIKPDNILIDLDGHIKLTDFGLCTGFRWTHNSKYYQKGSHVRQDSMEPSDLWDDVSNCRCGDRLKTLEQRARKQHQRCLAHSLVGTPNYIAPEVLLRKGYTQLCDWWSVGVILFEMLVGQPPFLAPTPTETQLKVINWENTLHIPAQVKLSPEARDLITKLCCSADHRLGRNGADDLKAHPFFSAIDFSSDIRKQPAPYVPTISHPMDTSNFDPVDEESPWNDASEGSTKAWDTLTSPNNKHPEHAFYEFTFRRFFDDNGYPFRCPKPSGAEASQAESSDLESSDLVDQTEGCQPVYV

[6] = target: T3, Serine/threonine-protein kinase 4 (Homo sapiens) (UniProt Q13043); experiment: Selectivity interaction (KinomeScan (DiscoverX)) EUB0001049a STK4; conditions: at 1 µM
T3 sequence (whole entry): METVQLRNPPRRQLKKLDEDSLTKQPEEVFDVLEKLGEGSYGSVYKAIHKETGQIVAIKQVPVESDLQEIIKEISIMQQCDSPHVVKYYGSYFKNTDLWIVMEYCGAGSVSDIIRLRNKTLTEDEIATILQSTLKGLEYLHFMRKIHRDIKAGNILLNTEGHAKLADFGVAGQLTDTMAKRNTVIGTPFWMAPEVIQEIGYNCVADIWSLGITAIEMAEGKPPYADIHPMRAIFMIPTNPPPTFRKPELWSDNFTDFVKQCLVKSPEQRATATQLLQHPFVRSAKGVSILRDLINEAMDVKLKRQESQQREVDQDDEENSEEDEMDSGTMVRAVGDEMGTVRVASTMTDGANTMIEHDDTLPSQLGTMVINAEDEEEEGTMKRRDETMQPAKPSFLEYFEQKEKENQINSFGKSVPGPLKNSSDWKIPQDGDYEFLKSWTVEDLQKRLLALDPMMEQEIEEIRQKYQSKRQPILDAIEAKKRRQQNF

[7] = target: Receptor-interacting serine/threonine-protein kinase 3 (Homo sapiens) (UniProt Q9Y572); experiment: Selectivity interaction (ActivX KiNativ screen (ex vivo kinase selectivity in human PBMCs)) EUB0001619a RIPK3; type: cell-based; conditions: PBMC, at 1 µM
Sequence of Receptor-interacting serine/threonine-protein kinase 3 (Homo sapiens) (Q9Y572 whole entry, looked up): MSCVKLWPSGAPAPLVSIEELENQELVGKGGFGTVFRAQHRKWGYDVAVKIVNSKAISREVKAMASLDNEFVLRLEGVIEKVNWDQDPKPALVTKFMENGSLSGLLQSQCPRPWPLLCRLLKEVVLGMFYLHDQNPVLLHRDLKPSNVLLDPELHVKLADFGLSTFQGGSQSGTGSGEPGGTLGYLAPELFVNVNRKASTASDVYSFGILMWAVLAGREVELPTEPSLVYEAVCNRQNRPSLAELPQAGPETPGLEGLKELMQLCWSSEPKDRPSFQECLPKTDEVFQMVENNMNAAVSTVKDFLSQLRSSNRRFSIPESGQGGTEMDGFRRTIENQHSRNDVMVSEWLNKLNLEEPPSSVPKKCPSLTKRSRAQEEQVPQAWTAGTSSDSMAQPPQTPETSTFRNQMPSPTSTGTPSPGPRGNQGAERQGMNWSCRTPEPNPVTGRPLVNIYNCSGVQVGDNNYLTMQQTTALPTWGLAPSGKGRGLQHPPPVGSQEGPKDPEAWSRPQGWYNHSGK

Sequence of Mitogen-activated protein kinase 3 (P27361 whole entry): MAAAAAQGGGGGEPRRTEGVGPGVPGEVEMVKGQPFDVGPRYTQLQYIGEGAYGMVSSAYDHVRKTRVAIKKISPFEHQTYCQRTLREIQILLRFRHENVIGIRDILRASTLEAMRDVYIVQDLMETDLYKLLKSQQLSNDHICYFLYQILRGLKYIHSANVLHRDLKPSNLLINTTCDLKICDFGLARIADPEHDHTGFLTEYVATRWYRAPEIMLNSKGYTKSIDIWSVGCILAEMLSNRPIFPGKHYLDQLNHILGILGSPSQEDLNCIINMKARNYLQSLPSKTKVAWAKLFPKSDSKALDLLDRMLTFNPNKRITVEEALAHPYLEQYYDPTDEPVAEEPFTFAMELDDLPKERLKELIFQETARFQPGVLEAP

Compound: Cn1cc(-n2cnc3c(NCc4nc5cc(Cl)c(Cl)cc5[nH]4)nc(N4CCOCC4)nc32)cn1
- % of inhibition [1]: -5.84%

Compound: CC[C@@H]1[C@H](F)C(=O)N[C@@H]1COc1nccc2cc(C(N)=O)c(OC)cc12 [ZIMLOVISERTIB]
- % of inhibition ([2]; at 0.01 µM): 0.5%
- % of inhibition ([2]; at 0.04 µM): 6.6%
- % of inhibition ([2]; at 0.2 µM): -14.2%
- % of inhibition ([2]; at 1 µM): 6.3%
- % of inhibition ([2]; at 5 µM): 19.6%
- % of inhibition [3]: 1.6%

Compound: CNC(=O)Nc1ccc(-c2nc(N3CC4CCC(C3)O4)c3cnn(C4CCC5(CC4)OCCO5)c3n2)cc1
- % of inhibition [4]: 2%
- % of control [5]: 76%

Compound: COc1cc(Nc2nc(C)cc(-c3cnn4nc(OC)ccc34)n2)cc(C(F)(F)F)c1
- % of control [6]: 85%

Compound: N#Cc1cccc(-c2c[nH]c3ncnc(N4CCOCC4)c23)c1
- % of inhibition [7]: 8%
